Measured values taken from PMC6923863 (BMC Pharmacology & Toxicology, 2019).

What was measured:
Ca^2+ Channel L-Type = Ca^2+ Channel L-Type (Rattus norvegicus, UniProt P22002); assay type: binding; conditions: only quoted where inhibition > 15%, read-out: Percent Inhibition at 10 μM
HCN1 K^+ Channel = biological target: T1, HCN1 K^+ Channel (Homo sapiens, UniProt O60741); test: Molecular target binding profile: patch-clamp functional assay (Eurofins Panlabs 952727); assay type: cell-based
T1 construct: Eurofins Panlabs Ltd., Taipei, Taiwan 952727
T1 sequence (O60741 1-890): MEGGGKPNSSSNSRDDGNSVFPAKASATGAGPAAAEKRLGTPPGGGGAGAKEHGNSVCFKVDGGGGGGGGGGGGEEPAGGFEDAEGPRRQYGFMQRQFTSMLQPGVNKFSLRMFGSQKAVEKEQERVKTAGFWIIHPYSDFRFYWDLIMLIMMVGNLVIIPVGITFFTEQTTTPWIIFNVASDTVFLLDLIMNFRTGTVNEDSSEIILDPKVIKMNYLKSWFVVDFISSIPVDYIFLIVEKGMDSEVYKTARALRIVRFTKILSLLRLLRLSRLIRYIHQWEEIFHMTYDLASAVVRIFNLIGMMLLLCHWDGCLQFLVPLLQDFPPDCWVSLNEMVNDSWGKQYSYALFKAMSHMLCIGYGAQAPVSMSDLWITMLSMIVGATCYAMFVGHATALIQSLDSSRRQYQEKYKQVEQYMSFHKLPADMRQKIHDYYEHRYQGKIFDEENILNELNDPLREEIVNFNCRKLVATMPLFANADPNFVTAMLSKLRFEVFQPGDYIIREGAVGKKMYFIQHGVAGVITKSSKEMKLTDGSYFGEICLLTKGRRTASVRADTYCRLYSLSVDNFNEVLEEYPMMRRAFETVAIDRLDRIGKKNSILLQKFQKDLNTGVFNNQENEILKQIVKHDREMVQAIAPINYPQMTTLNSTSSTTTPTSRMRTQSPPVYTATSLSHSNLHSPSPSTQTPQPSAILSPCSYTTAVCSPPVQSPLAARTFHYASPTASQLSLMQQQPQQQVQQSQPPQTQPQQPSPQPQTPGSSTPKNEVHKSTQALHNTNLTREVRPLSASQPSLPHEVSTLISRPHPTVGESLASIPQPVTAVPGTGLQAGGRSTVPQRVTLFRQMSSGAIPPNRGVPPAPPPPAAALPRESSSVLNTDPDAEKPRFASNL

Sprague-Dawley rats [1] = test: Loss of righting reflex (LORR) following intravenous administration; assay type: in vivo, rat; conditions: for LORR duration, mean (SEM): 12 mg/kg IV over 30 s
Sprague-Dawley rats [2] = test: Thermal sensitivity (tail flick latency) testing after bolus injection or infusion; assay type: in vivo, rat; conditions: pre-emptive analgesia, hypnotic and sub-hypnotic IV dosing regimens
Sprague-Dawley rats [3] = test: Thermal tail flick latency in rats with saline or morphine osmotic minipumps (opioid tolerance); assay type: in vivo, rat
Sprague-Dawley rats [4] = test: Pre-pulse inhibition (PPI) of acoustic startle and behavioural testing; assay type: in vivo, rat
Sprague-Dawley rats [5] = test: Behavioural dysfunction scoring in minipump rats; conditions: 12 mg/kg IV over 30 s

Chain of Ca^2+ Channel L-Type (P22002 whole entry): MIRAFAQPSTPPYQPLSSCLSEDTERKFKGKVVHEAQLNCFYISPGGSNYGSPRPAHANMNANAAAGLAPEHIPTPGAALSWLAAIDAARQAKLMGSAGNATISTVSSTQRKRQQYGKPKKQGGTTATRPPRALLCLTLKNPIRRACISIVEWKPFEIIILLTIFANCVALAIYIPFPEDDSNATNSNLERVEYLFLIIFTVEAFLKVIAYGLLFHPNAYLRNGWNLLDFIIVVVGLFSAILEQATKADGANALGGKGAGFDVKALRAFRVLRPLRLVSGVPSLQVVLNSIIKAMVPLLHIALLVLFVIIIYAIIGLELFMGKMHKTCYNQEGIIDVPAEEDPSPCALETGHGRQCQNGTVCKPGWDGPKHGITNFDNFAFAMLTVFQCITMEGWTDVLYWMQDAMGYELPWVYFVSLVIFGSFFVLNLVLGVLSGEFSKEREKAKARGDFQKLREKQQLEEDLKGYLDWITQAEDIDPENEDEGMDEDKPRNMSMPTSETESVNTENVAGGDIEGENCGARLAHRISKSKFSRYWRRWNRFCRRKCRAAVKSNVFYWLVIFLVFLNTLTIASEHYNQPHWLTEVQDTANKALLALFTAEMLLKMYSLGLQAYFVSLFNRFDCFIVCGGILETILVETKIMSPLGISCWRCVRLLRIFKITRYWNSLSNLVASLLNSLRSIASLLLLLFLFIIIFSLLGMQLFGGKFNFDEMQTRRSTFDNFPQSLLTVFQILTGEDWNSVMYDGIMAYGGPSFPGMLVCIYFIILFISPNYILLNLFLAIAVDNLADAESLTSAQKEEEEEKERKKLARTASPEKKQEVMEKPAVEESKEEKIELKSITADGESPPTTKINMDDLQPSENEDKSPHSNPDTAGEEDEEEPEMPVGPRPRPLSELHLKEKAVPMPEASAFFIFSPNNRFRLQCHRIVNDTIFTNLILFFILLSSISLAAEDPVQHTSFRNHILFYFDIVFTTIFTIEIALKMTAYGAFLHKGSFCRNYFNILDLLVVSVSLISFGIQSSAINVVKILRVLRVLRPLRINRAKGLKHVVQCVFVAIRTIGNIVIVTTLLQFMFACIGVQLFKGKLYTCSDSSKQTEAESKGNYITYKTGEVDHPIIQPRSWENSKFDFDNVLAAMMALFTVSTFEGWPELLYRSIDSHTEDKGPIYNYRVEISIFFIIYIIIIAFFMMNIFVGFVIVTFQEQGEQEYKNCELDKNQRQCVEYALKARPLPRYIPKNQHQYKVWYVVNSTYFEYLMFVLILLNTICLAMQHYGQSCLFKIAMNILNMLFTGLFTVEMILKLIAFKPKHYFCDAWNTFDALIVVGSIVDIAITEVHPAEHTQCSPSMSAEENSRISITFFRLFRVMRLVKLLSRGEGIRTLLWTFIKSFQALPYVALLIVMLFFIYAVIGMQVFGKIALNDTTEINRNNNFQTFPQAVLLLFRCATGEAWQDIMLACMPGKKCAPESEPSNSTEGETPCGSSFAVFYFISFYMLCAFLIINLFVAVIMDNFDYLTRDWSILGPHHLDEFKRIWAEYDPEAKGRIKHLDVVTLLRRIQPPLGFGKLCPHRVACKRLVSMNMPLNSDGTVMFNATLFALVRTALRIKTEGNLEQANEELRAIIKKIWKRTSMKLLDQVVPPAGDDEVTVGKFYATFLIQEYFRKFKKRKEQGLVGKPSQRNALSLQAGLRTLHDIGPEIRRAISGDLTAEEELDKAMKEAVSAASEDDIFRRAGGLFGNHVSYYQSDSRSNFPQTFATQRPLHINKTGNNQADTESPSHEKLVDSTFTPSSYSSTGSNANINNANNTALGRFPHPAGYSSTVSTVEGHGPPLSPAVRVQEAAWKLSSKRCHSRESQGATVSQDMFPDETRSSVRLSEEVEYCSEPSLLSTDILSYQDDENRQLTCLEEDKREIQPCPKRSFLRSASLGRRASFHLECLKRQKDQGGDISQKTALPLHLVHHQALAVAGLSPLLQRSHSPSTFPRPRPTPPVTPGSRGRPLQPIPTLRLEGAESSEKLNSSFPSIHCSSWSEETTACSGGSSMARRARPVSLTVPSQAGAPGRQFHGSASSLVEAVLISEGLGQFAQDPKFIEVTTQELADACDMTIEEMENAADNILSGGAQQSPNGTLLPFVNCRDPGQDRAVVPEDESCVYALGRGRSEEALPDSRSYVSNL

Question: With `CNC1(c2ccccc2Cl)CCCCC1=O` (stereo not drawn) [Ketamine] as the compound, how does the inhibition at 10 µM (Ca^2+ Channel L-Type) read?
Answer: 24%

Question: What about the IC50 (HCN1 K^+ Channel) of the same compound?
Answer: > 100 µM

Question: What about the inhibition at 100 µM (HCN1 K^+ Channel; patch-clamp assay quoted at 100 μM, not 10 μM (top dose employed), read-out: Percent Inhibition) of the same compound?
Answer: 15%

Question: What about the “LORR duration, mean (SEM)” value (Sprague-Dawley rats [1]; rats with morphine minipump (6 mg daily), day 1) of the same compound?
Answer: 247.0 (28.4) seconds

Question: And the “LORR duration, mean (SEM)” value (Sprague-Dawley rats [1]; rats with morphine minipump (6 mg daily), day 6)?
Answer: 272.5 (12.9) seconds

Question: And the “LORR duration, mean (SEM)” value (Sprague-Dawley rats [1]; rats with saline minipump, day 1)?
Answer: 189.2 (23.8) seconds

Question: And the “LORR duration, mean (SEM)” value (Sprague-Dawley rats [1]; rats with saline minipump, day 6)?
Answer: 277.0 (16.9) seconds

Question: And the “Induction of LORR, animals affected” value (Sprague-Dawley rats [1]; 12 mg/kg over 30 s, rats with saline or morphine minipumps, days one and six)?
Answer: all animals

Question: And the ED50 (Sprague-Dawley rats [1]; Rattus norvegicus, rats, 30 s bolus intravenous injection)?
Answer: 9.6 mg/kg

Question: And the “Duration of loss of righting, mean (SEM)” value (Sprague-Dawley rats [1]; rats, 10 minute hypnotic IV infusion (KEA-1010 total 56 mg/kg; ketamine total 28 mg/kg))?
Answer: 418.0 (86.4) seconds

Question: And the “Duration of loss of righting, mean (SEM)” value (Sprague-Dawley rats [1]; rats, hypnotic IV bolus over 15 s (KEA-1010 11 mg/kg; ketamine 10 mg/kg))?
Answer: 491.8 (67.7) seconds

Question: What about the “Slope of LORR duration vs. dose curves” value (Sprague-Dawley rats [1]; rats, intravenous injection over 30 s) of the same compound?
Answer: 69.8 s/mg/kg

Question: And the “Thermal tail flick latency” value (Sprague-Dawley rats [2])?
Answer: prolonged thermal tail flick latency

Question: And the “Thermal tail flick latency, augmentation of morphine analgesia” value (Sprague-Dawley rats [3]; 12 mg/kg IV over 30 s, morphine minipump animals, day one)?
Answer: augmented morphine mediated analgesia

Question: What about the “Thermal tail flick latency in opioid tolerant rats” value (Sprague-Dawley rats [3]; 12 mg/kg IV over 30 s, morphine minipump rats, day six) of the same compound?
Answer: TFL prolongation of similar magnitude to that of saline mini-pump subjects

Question: What about the “Thermal tail flick latency” value (Sprague-Dawley rats [3]; 12 mg/kg IV over 30 s, opioid-naïve rats, day one post saline minipump insertion) of the same compound?
Answer: Prolongation of thermal tail flick

Question: What about the “Thermal tail flick latency” value (Sprague-Dawley rats [3]; 12 mg/kg IV over 30 s, saline minipump rats, day six) of the same compound?
Answer: prolonged tail flick latency

Question: What about the “Pre-pulse inhibition (PPI) effect” value (Sprague-Dawley rats [4]; 5 minutes after IV dosing, ketamine 10 mg/kg, KEA-1010 11 mg/kg, KEA-1037 10 mg/kg) of the same compound?
Answer: disrupted the PPI effect

Question: What about the “Percent PPI or startle amplitude” value (Sprague-Dawley rats [4]; 30 min after drug administration) of the same compound?
Answer: No statistically significant differences

Question: What about the Ataxia (Sprague-Dawley rats [4]; behavioural testing post dosing, ketamine 10 mg/kg, KEA-1010 11 mg/kg, KEA-1037 10 mg/kg IV) of the same compound?
Answer: greater ataxia at 23 and 48 min post dosing compared with vehicle

Question: And the “Percent Inhibition at 10 μM” value (GABAA Receptor; 10 μM, only quoted where inhibition > 15%)?
Answer: − (Percent Inhibition at 10 μM only quoted where inhibition > 15%)

Question: And the IC50 (GABAA Receptor; radioligand binding)?
Answer: > 10 µM

Question: What about the “Time of gradual return to normal behavioural patterns” value (Sprague-Dawley rats [5]; minipump rats) of the same compound?
Answer: 40 to 50 min

Question: And the “Time of maximal behavioural dysfunction” value (Sprague-Dawley rats [5]; minipump rats)?
Answer: 5 min

Question: What about the “Behavioural dysfunction score / behavioural aberration” value (Sprague-Dawley rats [5]; saline or morphine minipump rats, days one and six) of the same compound?
Answer: profound behavioural aberration

Question: With `CN1CC[C@]23c4c5ccc(O)c4O[C@H]2[C@@H](O)C=C[C@H]3[C@H]1C5` [morphine] as the compound, how does the “Thermal tail flick latency compared with vehicle treated animals” value (Sprague-Dawley rats [3]; 24 h of continuous morphine treatment via minipump (6 mg daily)) read?
Answer: significant antinociception

Question: What about the “Time to development of tolerance to thermal tail flick stimuli” value (Sprague-Dawley rats [3]; continuous subcutaneous pump administration of morphine (6 mg/day) in rats) of the same compound?
Answer: 3 to 4 days
